Source: ChEMBL document CHEMBL1201862, “PubChem BioAssay data set” (2004)
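A five-concentration, 48-hour dose response in 96-well plates underlies each endpoint, interpolated linearly between surrounding concentrations. Here, GI50 denotes the concentration required for 50% inhibition of growth.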 Calls of active or inactive are those of the source. Cut-off read from the data, not from the text of the source: active = GI50 up to about 1.1 µM and inactive = higher.

What was measured:
Assay in all cases: NCI anticancer screen, dose series, 48 h
ACHN = system: ACHN
EKVX = system: EKVX
HCT-15 = system: HCT-15
HOP-62 = system: HOP-62
HOP-92 = system: HOP-92
HT-29 = system: HT-29
IGROV-1 = system: IGROV-1
K562 = system: K562
MCF7 = system: MCF7
OVCAR-3 = system: OVCAR-3
OVCAR-4 = system: OVCAR-4
OVCAR-8 = system: OVCAR-8
SF-295 = system: SF-295
SK-MEL-28 = system: SK-MEL-28
SN12C = system: SN12C
SNB-19 = system: SNB-19
SR = system: SR
T47D = system: T47D
UO-31 = system: UO-31
NCI-H522 = system: NCI-H522

Compound | GI50 (ACHN) | GI50 (EKVX) | GI50 (HCT-15) [µM] | GI50 (HOP-62) | GI50 (HOP-92) | GI50 (HT-29) | GI50 (IGROV-1) | GI50 (K562) | GI50 (MCF7) | GI50 (OVCAR-3) | GI50 (OVCAR-4) | GI50 (OVCAR-8) | GI50 (SF-295) | GI50 (SK-MEL-28) | GI50 (SN12C) | GI50 (SNB-19) | GI50 (SR) | GI50 (T47D) | GI50 (UO-31) | GI50 (NCI-H522)
O=C1CCC[C@H]2O[C@@H](COC(=O)c3ccccc3)C[C@H]2O1 | > 100 µM (inactive) | > 100 µM (inactive) | > 100 | > 100 µM (inactive) | > 100 µM (inactive) | > 100 µM (inactive) | > 100 µM (inactive) | > 100 µM (inactive) | > 100 µM (inactive) | > 100 µM (inactive) | > 100 µM (inactive) | > 100 µM (inactive) | > 100 µM (inactive) | > 100 µM (inactive) | > 100 µM (inactive) | > 100 µM (inactive) | > 100 µM (inactive) | > 100 µM (inactive) | > 100 µM (inactive) | 
CCCSc1cc(Cl)c(C)cc1S(=O)(=O)n1ccnc1OCCCN(C)C | > 100 µM (inactive) | > 100 µM (inactive) | > 100 | > 100 µM (inactive) |  | > 100 µM (inactive) | > 100 µM (inactive) | > 100 µM (inactive) | > 100 µM (inactive) | > 100 µM (inactive) | > 100 µM (inactive) | > 100 µM (inactive) | > 100 µM (inactive) | > 100 µM (inactive) | > 100 µM (inactive) | > 100 µM (inactive) | > 100 µM (inactive) | > 100 µM (inactive) | > 100 µM (inactive) | > 100 µM (inactive)
Cc1ccc([S+]([O-])c2sccc2C=O)cc1 (stereo unspecified) | 63 µM (inactive) | 26.2 µM (inactive) | 27.7 | 31.3 µM (inactive) |  | 19.8 µM (inactive) | 22.6 µM (inactive) | 48.6 µM (inactive) | 21.4 µM (inactive) | > 10 µM (inactive) | 29 µM (inactive) | 23.1 µM (inactive) | 23.7 µM (inactive) | 29.2 µM (inactive) | 22.9 µM (inactive) | > 100 µM (inactive) | 31.8 µM (inactive) | 43.7 µM (inactive) | 70.1 µM (inactive) | 41.1 µM (inactive)
O=C(CNC(=O)OCc1ccccc1)NCCCCC(NC(=O)OCc1ccccc1)C(=O)NC(CCCCNC(=O)CNC(=O)OCc1ccccc1)C(=O)OCc1ccccc1 (stereo unspecified) | > 62.5 µM (inactive) |  | > 62.5 | > 62.5 µM (inactive) |  | > 62.5 µM (inactive) | > 62.5 µM (inactive) | > 62.5 µM (inactive) | > 62.5 µM (inactive) | > 62.5 µM (inactive) | > 62.5 µM (inactive) | > 62.5 µM (inactive) |  | > 62.5 µM (inactive) | > 62.5 µM (inactive) | > 62.5 µM (inactive) | > 62.5 µM (inactive) | > 62.5 µM (inactive) | > 62.5 µM (inactive) | 26.9 µM (inactive)
CC1CC(=O)N2CCCNC2=C1C#N (stereo unspecified) |  | > 100 µM (inactive) | > 100 | > 100 µM (inactive) |  | > 100 µM (inactive) | > 100 µM (inactive) | > 100 µM (inactive) | > 100 µM (inactive) | > 100 µM (inactive) | > 100 µM (inactive) | > 100 µM (inactive) | > 100 µM (inactive) | > 100 µM (inactive) | > 100 µM (inactive) | > 100 µM (inactive) | > 100 µM (inactive) | > 100 µM (inactive) | > 100 µM (inactive) | > 100 µM (inactive)
CP(C)(=S)P(C)(C)=S | > 100 µM (inactive) | > 100 µM (inactive) | > 100 | > 100 µM (inactive) |  | > 100 µM (inactive) | 78.5 µM (inactive) | > 100 µM (inactive) | > 100 µM (inactive) |  | > 100 µM (inactive) | > 100 µM (inactive) | > 100 µM (inactive) | > 100 µM (inactive) | > 100 µM (inactive) | > 100 µM (inactive) | > 100 µM (inactive) | > 100 µM (inactive) | > 100 µM (inactive) | > 100 µM (inactive)
C[n+]1cn(-c2ccc([N+](=O)[O-])cn2)c2ccccc21 | > 100 µM (inactive) | > 100 µM (inactive) | > 100 | > 100 µM (inactive) | > 100 µM (inactive) | > 100 µM (inactive) | > 100 µM (inactive) | > 100 µM (inactive) | > 100 µM (inactive) | > 100 µM (inactive) | > 100 µM (inactive) | > 100 µM (inactive) | > 100 µM (inactive) | > 100 µM (inactive) |  | > 100 µM (inactive) | > 100 µM (inactive) | > 100 µM (inactive) | > 100 µM (inactive) | 
N#Cc1c(C#N)c(-c2ccccc2)n(Cc2ccccc2)c1N | > 100 µM (inactive) | > 100 µM (inactive) | > 100 | 51.1 µM (inactive) |  | > 100 µM (inactive) | > 100 µM (inactive) | > 100 µM (inactive) | > 100 µM (inactive) | > 100 µM (inactive) | > 100 µM (inactive) | 28.4 µM (inactive) | > 100 µM (inactive) |  | > 100 µM (inactive) | 29.6 µM (inactive) | > 100 µM (inactive) | > 100 µM (inactive) | > 100 µM (inactive) | > 100 µM (inactive)
